This is an account of results in the Bradley open melting point set (2014).

Values joined by “and” are separate entries in the source; they are usually repeats but may differ in a detail not shown here. Equal values may be shown once.

The term melting point denotes the temperature, or range, at which the solid turns liquid. As to `C=CCC1([C@H](C)CCC)C(=O)NC(=O)NC1=O` [Secobarbital], the melting point came to 100 °C.

The compound `Nc1cc(C(=O)O)cc(C(F)(F)F)c1` [3-amino-5-(trifluoromethyl)benzoic acid] returned a melting point of 144 °C.

Compound `CC(C)CC1=C/C(=C/c2ccc(-c3ccc([N+](=O)[O-])cc3)o2)C(=O)O1` gave a melting point of 163 °C.

`Oc1ccc(Cl)c2cccnc12` [5-chloro-8-hydroxyquinoline] returned a melting point of 123 °C.

In turn, `O=[N+]([O-])c1cc[n+]([O-])cc1Br` [3-bromo-4-nitropyridine n-oxide] gave a melting point of 153 °C.

The compound `c1ccc2c(c1)cc1ccc3cccc4ccc2c1c34` [benzo(a)pyrene] came in with a melting point of 179 °C.

Regarding `CC(C)(C#N)c1cc(Cn2cncn2)cc(C(C)(C)C#N)c1` [Anastrozole], the melting point is 130 °C.

The compound `CC(=O)OCC(COC(C)=O)OC(C)=O` [Propane-1,2,3-triyl triacetate] showed a melting point of 3 °C.

`CCOC(=O)C(C#N)=C(SC)SC` [Ethyl 2-cyano-3,3-bis(methylsulfanyl)acrylate]: the melting point was 54 °C.

Take `O=C(O)c1cc2ccccc2oc1=O` [coumarin-3-carboxylic acid]: the melting point is 192 °C.

As for `C=C(C)CC` [2-Methylbut-1-ene], the melting point is -137 °C.

Turning to `Cc1cc(C)c(Br)cc1C` [5-bromo-1,2,4-trimethylbenzene], the melting point stood at 72 °C.

Take `C[C@]12CC[C@@H]3c4ccc(O)cc4CC[C@H]3[C@@H]1CC[C@@H]2O` [estradiol]: the melting point is 176 °C.

Take `N#Cc1cccc(C(=O)O)c1` [3-cyanobenzoic_acid]: the melting point was 223 °C.

For `C=CCI` [3-iodo-1-propene], the melting point was -99 °C.

Compound `BrC(Br)C(Br)Br` [1,1,2,2-tetrabromoethane] returned a melting point of 0 °C.

As to `N#CCc1cccc(Br)c1` [3-bromophenylacetonitrile], the melting point was found to be 27 °C.

As to `CCN(CC)C(=S)SSC(=S)N(CC)CC` [tetraethylthiuram disulfide], the melting point was found to be 71 °C.

As for `N#CCC(=O)c1ccccc1` [Cyanoacetophenone], the melting point came out at 83 °C.

In turn, `N(=N/c1ccccc1)c2ccccc2` [azobenzene] gave a melting point of 69 °C.

As to `N#Cc1cccc(O)c1` [3-hydroxybenzonitrile], the melting point was 80 °C.

Consider `CCCNCCC` [di-n-propylamine], for which the melting point was -63 °C.

As for `CCC1(O)CCC2(C)C(CCC3C4CCC(=O)C4(C)CCC32)C1` (stereo unspecified) [3-ethyl-3-hydroxyandrostan-17-one], the melting point was found to be 115 °C.

Turning to `OCCC12CC3CC(CC(C3)C1)C2` [1-adamantaneethanol], the melting point was 74 °C.

On to `CC12CCC(C(C(c3ccccc3)c3ccccc3)C1=O)C2(C)C` (stereo unspecified) [2-Bornanone, 3-(diphenylmethyl)-], for which the melting point was determined as 107 °C.

The compound `CCCCOC(=O)c1ccc(O)cc1` [Mekkings B] yielded a melting point of 72 °C.

Compound `C=C(C)C(=O)OCC` [Ethyl methacrylate] returned a melting point of -75 °C.

In turn, `Cc1ccc(C)c(Br)c1` [2-bromo-p-xylene] displayed a melting point of 10 °C.

Compound `COc1ccc(N)c([N+](=O)[O-])c1` [4-methoxy-2-nitroaniline] gave a melting point of 127 °C.

As for `Cc1ccccc1NC=O` [2-methylformanilide], the melting point was 59 °C.

The compound `Oc1ccc(I)cc1` [p-iodophenol] displayed a melting point of 94 °C.

As to `CCc1ccc(C)cc1` [1-methyl-4-ethylbenzene], the melting point is -62 °C.

For `CNC1=CC2=NC(OC)=CC2=CC1` [2-methoxy-N-methyl-1H-indol-6-amine], the melting point amounted to 165 °C.

Compound `O=C(Cl)c1nc2ccccc2s1` [benzothiazole-2-carbonyl chloride] showed a melting point of 114 °C.

Consider `CCCCCCCCCCCC` [dodecane], for which the melting point is -10 °C.

Consider `Oc1ccc(Cl)cc1Cl` [2,4-dichlorophenol], for which the melting point was 43 °C and 45 °C and 42.5 °C.

For `CCOC(N)=O` [ethyl carbamate], the melting point amounted to 49 °C.

For the compound `Cc1ncc2n1-c1ccc(Cl)cc1C(c1ccccc1F)=NC2` [Midazolam], the melting point came to 159 °C.

On to `CCCCCCCCCCCCCC(=O)O` [tetradecanoic acid], for which the melting point came out at 55 °C.

Take `CC(C)O` [2-propanol]: the melting point was -88 °C.

Turning to `COCOC` [dimethoxymethane], the melting point was -105 °C.

For the compound `Brc1cc(Br)cc(Br)c1` [1,3,5-tribromobenzene], the melting point was 124 °C (2×) and 122 °C.

For the compound `O=C(O)c1cccc(Cl)c1` [3-chlorobenzoic acid], the melting point was found to be 157 °C.

For the compound `CCCCCCCCCCCCCCCCCC(=O)OC` [methyl stearate], the melting point was 40 °C.

Regarding `OC[C@H]1O[C@H](O)[C@H](O)[C@@H](O)[C@@H]1O` [glucose], the melting point is 150 °C and 146 °C (3×) and 147 °C.

`Oc1c(F)c(F)c(F)c(F)c1F` [Pentafluorophenol] gave a melting point of 35 °C.

`CC(C)I` [2-iodopropane] registered a melting point of -90 °C.

With `Clc1ccc(-c2ccccc2)cc1` [4-chlorobiphenyl], the melting point worked out at 78 °C.

`COc1cccc(C(=O)O)c1` [3-Methoxybenzoic acid] had a melting point of 106 °C.

`O=C(O)c1cc[n+]([O-])cc1` [isonicotinic acid n-oxide]: the melting point worked out at 270 °C.

Consider `CC1(C)CCC2=C1CCC1C2CCC2CC(=O)CCC21C` (stereo unspecified) [10,17,17-trimethylgon-13-en-3-one], for which the melting point was found to be 135 °C.

Compound `CC(=O)O[C@@H]1[C@@H](OC(C)=O)[C@H](C)O[C@H](C#N)[C@@H]1OC(C)=O` had a melting point of 130 °C.

As to `Cc1cc(N)nc(C)n1` [4-amino-2,6-dimethylpyrimidine], the melting point was determined as 185 °C.

As to `CCCCCCCCCCCCC` [Tridecane], the melting point is -5 °C.

`CS(=O)(=O)OCCCCOS(C)(=O)=O` [busulfan] had a melting point of 116 °C.

In turn, `O=c1c(O)c(-c2ccc(O)cc2)oc2ccccc12` [3,4'-dihydroxyflavone] came in with a melting point of 286 °C.

`CCCCCCCCCCC(C)=O` [2-dodecanone] came in with a melting point of 21 °C.

In turn, `NC(=O)c1ccccc1O` [salicylamide] registered a melting point of 140 °C.

Compound `c1ccc2c(c1)CCCC2` [1,2,3,4-tetrahydronaphthalene(tetralin)] registered a melting point of -35 °C.

`CCOC(=O)c1ccccc1` [Ethyl benzoate] yielded a melting point of -34 °C.

`CC(C)OC(=O)Nc1ccccc1` [isopropyl n-phenylcarbamate] displayed a melting point of 88 °C.

In turn, `Fc1c(F)c(F)c(B(c2c(F)c(F)c(F)c(F)c2F)c2c(F)c(F)c(F)c(F)c2F)c(F)c1F` [tris(pentafluorophenyl)borane] displayed a melting point of 128 °C.

As for `COc1ccc(/C=C/C(=O)O)c(Cl)c1OC` [2-chloro-3,4-dimethoxycinnamic acid], the melting point was found to be 195 °C.

`Cc1cc(Br)ccc1N` [4-bromo-2-methylaniline] gave a melting point of 58 °C.

With `O=S(=O)(O)F` [Sulfurofluoridic acid], the melting point is -87.3 °C.

In turn, `CCCC(C)(COC(N)=O)COC(N)=O` [2-[(Carbamoyloxy)methyl]-2-methylpentyl carbamate] gave a melting point of 105 °C.

The compound `COCOC` [Dimethoxymethane] yielded a melting point of -105 °C.

On to `C=Cc1ccccc1` [Styrene], for which the melting point is -31 °C.

Compound `O=[N+]([O-])c1ccccc1I` [1-iodo-2-nitrobenzene] gave a melting point of 51 °C.

Compound `COc1ccc(C(=O)c2ccc(OC)cc2OC)cc1` [2,4,4'-trimethoxybenzophenone] showed a melting point of 72 °C.

For the compound `CC(C)(C)OC(=O)C(C(=O)Cc1ccccc1)c1ccccc1` (stereo unspecified) [tert-butyl 3-oxo-2,4-diphenylbutanoate], the melting point was 83 °C.

`CC(=O)OCC1OC(OCc2ccccc2)C(OC(C)=O)C(OC(C)=O)C1OC(C)=O` (stereo unspecified) came in with a melting point of 98 °C.

The compound `BrCCCBr` [1,3-dibromopropane] displayed a melting point of -34 °C.

The compound `Nc1ccc(C2CCCCC2)cc1` [4-cyclohexylaniline] gave a melting point of 54 °C.

Consider `O=C1[C@H]2C[C@@H]3C[C@@H](C[C@H]1C3)C2` [Adamantanone], for which the melting point is 270 °C.

Take `Nc1cccc(O)c1` [m-aminophenol]: the melting point came out at 125 °C.

As for `c1ccc(Nc2ccccc2)cc1` [diphenylamine], the melting point is 52 °C and 53.5 °C and 54 °C.

Compound `CCC[C@H]1CCC[C@@H]1C` (relative stereo) [trans-1-methyl-2-propylcyclopentane] displayed a melting point of -123 °C.

The compound `CCCCCCC(O)CCCCCCCCCCC(=O)O` (stereo unspecified) [12-Hydroxyoctadecanoic acid] gave a melting point of 80.5 °C.

`O=C1c2ccccc2C(=O)c2c(Cl)cccc21` [1-chloroanthraquinone] had a melting point of 160 °C.

`Nc1c(Cl)cccc1Cl` [2,6-dichloroaniline] had a melting point of 40 °C.

Consider `CCCCN` [1-aminobutane], for which the melting point is -49 °C.

With `O=C1CCC(C(=O)O)=NN1` [1,4,5,6-tetrahydro-6-oxopyridazine-3-carboxylic acid], the melting point worked out at 197 °C.

The compound `COc1cccc(C(=O)O)c1O` [2-hydroxy-3-methoxybenzoic acid] returned a melting point of 152 °C.

Turning to `O=[N+]([O-])c1ccc(Cl)cc1` [1-chloro-4-nitrobenzene], the melting point was 84 °C.

For `Cc1ccccc1CO` [2-methylbenzyl alcohol], the melting point was 35 °C.

On to `CCc1cccc(C)c1N(C(=O)CCl)C(C)COC` (stereo unspecified) [metolachlor], for which the melting point came out at 25 °C.

As for `c1ccc(OP(Oc2ccccc2)Oc2ccccc2)cc1` [triphenyl phosphite], the melting point is 23 °C.

Regarding `OB(O)c1ccc(Cl)cc1C(F)(F)F` [4-chloro-2-(trifluoromethyl)benzeneboronic acid], the melting point is 181 °C.

`CC[C@H](C)C(=O)O[C@H]1C[C@H](O)C=C2C=C[C@H](C)[C@H](CC[C@@H](O)C[C@@H](O)CC(=O)O)[C@H]21` [Pravastatin] yielded a melting point of 326 °C.

With `O=C(O)c1ccc(Br)cc1` [p-bromobenzoic_acid], the melting point was 253 °C.
